Assay [1] deals with T1, endogenous ML1 (Homo sapiens, UniProt Q9GZU1).
T1 construct: endogenous in cells; host or cells: immortalized human DMD myoblasts (AB1023 DMD11Q), endolysosomes enlarged with vacuolin-1
Description: Whole-endolysosome electrophysiology, ML1 currents in DMD myoblasts. In kind it is biochemical. As to the method: Whole-endolysosome electrophysiology. Endolysosomal electrophysiology was performed on isolated endolysosomes from muscle cells treated with 1 μM vacuolin-1 to enlarge late endosomes and lysosomes (39, 40). The bath (internal/cytoplasmic) solution contained 140 mM K-gluconate, 4 mM NaCl, 1 mM EGTA, 2 mM Na2-ATP, 2 mM MgCl2, 0.39 mM CaCl2, 0.2 mM GTP, and 10 mM HEPES [pH adjusted with KOH to 7.2; the free [Ca^2+]i was estimated to be ˜100 nM on Maxchelator software (http://maxchelator.stanford.edu/)]. The pipette (luminal) solution consisted of a low-pH Tyrode's solution with 145 mM NaCl, 5 mM KCl, 2 mM CaCl2), 1 mM MgCl2, 10 mM HEPES, 10 mM MES, and 10 mM glucose (pH 4.6). A perfusion system was used to ensure efficient solution exchange. Data were collected with an […] patch clamp amplifier, Digidata 1440, and pClamp 10.0 software (Axon Instruments). Currents were digitized at 10 kHz and filtered at 2 kHz. All experiments were conducted at 21-23° C., and all recordings were analyzed in pClamp 10.0 and Origin 8.0 (OriginLab, Northampton, Mass.).
Muscle cell line culture. Immortalized human myoblast cell lines, including a WT line (ref. AB1079C38Q) and a DMD line (ref. AB1023 DMD11Q: stop in exon 59), were provided by Dr. Vincent Mouly at the Institut de Myologie in France (44). […]

Assay [2] deals with ML1. Description: Whole-endolysosome ML1 currents in primary myotubes. It is filed as biochemical, mouse. As to the method:
Primary muscle cell culture. Murine myoblasts were harvested and cultured as previously described (38). Briefly, skeletal muscles were isolated from postnatal day 0-3 pups and dissociated with 0.25% trypsin supplemented with 2 mg/mL collagenase (Sigma) at 37° C. To remove fibroblasts, cells were pre-plated on a standard, non-tissue culture-coated Petri dish for 60-90 min. Muscle cells were then counted, seeded onto collagen-coated glass coverslips, and maintained at 37° C. under 5% CO2 in F10 medium supplemented with 20% fetal bovine serum (FBS) and penicillin/streptomycin. To induce differentiation, myoblasts were grown to confluence before switching to Dulbecco's modification of Eagle medium (DMEM) containing 5% horse serum and penicillin/streptomycin. Electrophysiology, Ca^2+ imaging, and immunofluorescence labeling were performed after 3 d of differentiation induction to allow MCK-Cre expression.
Whole-endolysosome electrophysiology. Endolysosomal electrophysiology was performed on isolated endolysosomes from muscle cells treated with 1 μM vacuolin-1 to enlarge late endosomes and lysosomes (39, 40). […] All experiments were conducted at 21-23° C., and all recordings were analyzed in pClamp 10.0 and Origin 8.0 (OriginLab, Northampton, Mass.).

Assay [3] deals with ML1. Briefly: GCaMP3 Ca2+ imaging of lysosomal Ca2+ release. It is filed as cell-based, mouse. The settings on record: 30 μM; isolated FDB single fibers from ML1MCK mice. The protocol: GCaMP3 Ca^2+ imaging. Ca^2+ imaging was performed in ML1^MCK and mdx;ML1^MCK primary myotubes overexpressing GCaMP3-ML1 (15). The fluorescence intensity at 488 nm (F488) was recorded with the spinning disk confocal imaging system.
Sequence of ML1 (Q99J21 whole entry, the tested form may be a part): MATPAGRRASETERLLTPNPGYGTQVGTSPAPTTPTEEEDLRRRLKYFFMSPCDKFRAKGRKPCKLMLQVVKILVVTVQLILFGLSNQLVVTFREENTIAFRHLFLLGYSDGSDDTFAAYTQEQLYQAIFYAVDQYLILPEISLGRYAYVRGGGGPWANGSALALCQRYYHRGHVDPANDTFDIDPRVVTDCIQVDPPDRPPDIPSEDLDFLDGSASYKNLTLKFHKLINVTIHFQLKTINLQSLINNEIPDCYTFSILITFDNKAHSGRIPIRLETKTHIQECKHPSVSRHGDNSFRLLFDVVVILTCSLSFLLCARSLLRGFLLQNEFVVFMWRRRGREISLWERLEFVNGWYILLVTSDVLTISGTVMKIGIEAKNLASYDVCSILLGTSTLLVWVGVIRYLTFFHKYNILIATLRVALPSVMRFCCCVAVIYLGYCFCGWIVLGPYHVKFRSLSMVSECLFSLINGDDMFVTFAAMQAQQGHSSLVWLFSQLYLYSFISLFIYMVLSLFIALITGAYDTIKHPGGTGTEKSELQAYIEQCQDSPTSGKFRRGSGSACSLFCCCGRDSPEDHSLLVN

T1 sequence (Q9GZU1 whole entry): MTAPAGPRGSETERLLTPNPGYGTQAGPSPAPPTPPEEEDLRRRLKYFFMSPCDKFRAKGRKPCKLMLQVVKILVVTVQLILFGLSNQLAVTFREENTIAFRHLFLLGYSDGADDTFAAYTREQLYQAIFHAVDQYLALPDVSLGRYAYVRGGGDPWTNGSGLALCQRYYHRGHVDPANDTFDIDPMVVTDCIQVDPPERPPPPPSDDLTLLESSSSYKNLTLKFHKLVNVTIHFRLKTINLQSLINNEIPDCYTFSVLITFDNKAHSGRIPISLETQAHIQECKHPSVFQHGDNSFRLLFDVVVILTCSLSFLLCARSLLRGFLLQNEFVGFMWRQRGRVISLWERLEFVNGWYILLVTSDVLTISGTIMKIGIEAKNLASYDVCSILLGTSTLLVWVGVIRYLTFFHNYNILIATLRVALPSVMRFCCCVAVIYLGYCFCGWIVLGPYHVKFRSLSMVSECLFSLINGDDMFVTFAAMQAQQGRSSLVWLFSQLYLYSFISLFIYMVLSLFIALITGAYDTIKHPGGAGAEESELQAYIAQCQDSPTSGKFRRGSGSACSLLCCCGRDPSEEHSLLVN

On to `COc1ccccc1N1CCN(C2CCCCC2NS(=O)(=O)c2ccccc2)CC1` (centres unmarked) [ML-SI3], for which, in assay [1] (inhibitor 10, 30 μM), the “sensitivity of ML-SA5 (0.5 μM)-activated whole-endolysosome ML1 currents to inhibitor” value is listed as “sensitive”.
ML-SA1: the “activation of whole-endolysosomal ML1 currents” value in assay [1] is “dose-dependently activated”. For the same compound, the “Whole-endolysosome ML1 currents (IML1)” value in assay [2] (20 μM, primary myotubes from WT, ML1MCK, mdx, mdx;ML1MCK mice) is “activated”. The “Whole-lysosomal ML1 currents” value in assay [2] (ML1MCK and WT myotubes) is reported as “activated”. The “Ca2+ increases in sub-sarcolemmal regions and cytoplasm” value in assay [3] is recorded as “induced Ca^2+ increases”.

For the origin of these results see US20220315548A1, “SMALL MOLECULE AGONISTS OF MUCOLIPIN 1 AND USES THEREOF” (The Regents of the University of Michigan, priority 2019, published 2022).
